Results reported in patent US11267802B2 (BEBETTER MED INC., priority 2015, dated 2022).
pIC50: −log10 of the molar value.

What was measured:
LOVO = assay: Inhibition assay on tumor cell proliferation (CellTiter-Glo), LOVO; assay type: cell-based, Human; details: Homo sapiens; LOVO (wild-type EGFR), 72 hours, 10% bovine serum
Method: (§1) By using a CellTiter-Glo luminescence cell viability test kit (Promega, # G7572), the content of adenosine triphosphate (ATP) was determined to assess the cell viability.
(§2) Human colon cancer cell line LOVO and human non-small-cell lung cancer H358 express wild-type EGFR. Human non-small-cell lung cancer cell line HCC827 carries deletion mutation in exon 19 (ex19del). Those cell lines are purchased from Shanghai Fudan IBS Cell Resource Center and American Tissue Culture Collection (ATCC).
(§3) The assay procedure is as follows. The cells in a cell culture plate were digested with a pancreatic enzyme, re-suspended in a DPBS culture medium, and had the cell density counted by Scepter automated cytometer (Millipore # PHCC00000). The cells were diluted to a solution of 44,000 cells per ml. The cell solution with adjusted density was added to the cell assay plate at 90 microliters per well. The plate was placed in an incubator with 5% CO2 at 37° C. for 24 hours of incubation, and then added with different concentrations of subject compounds. The cells were incubated for 72 hours with the compounds in presence of 10% bovine serum. The content of ATP was determined by a CellTiter-Glo® Luminescent Cell Viability Assay kit (see the manufacturer's instruction for details) to evaluate cell-growth inhibition.
(§4) Briefly, 30 μl of CellTiter-Glo® reagent was added to each well, and then shaken for 10 minutes to induce cell lysis. The fluorescent signal was detected and recorded by Fluoroskan Ascent FL (Thermo). The max signal value was obtained from the cells treated by dimethyl sulfoxide for 72 hours. The min signal value was obtained from the medium alone (the number of the cells was 0). Inhibitory rate %=(max signal value−compound signal value)/(max signal value−min signal value)×100. The data was processed by GraphPad Prism V5.0 software (GraphPad Software, San Diego, Calif.). Sigmoidal dose-response curve fitting was performed to calculate the IC50 value.

H1975 = assay: Inhibition assay on tumor cell proliferation (CellTiter-Glo), H1975; assay type: cell-based, Human; details: Homo sapiens, NCI-H1975; H1975 (L858R and T790M EGFR double mutation), 72 hours, 10% bovine serum
H358 = assay: Inhibition assay on tumor cell proliferation (CellTiter-Glo), H358; assay type: cell-based, Human; details: Homo sapiens, NCI-H358; H358 (wild-type EGFR), 72 hours, 10% bovine serum
Method: as §1, §2, §3, §4

EGFR T790M/L858R = molecular target: T1, EGFR T790M/L858R (Homo sapiens, UniProt P00533, L858R/T790M); assay: Mutant EGFR T790M/L858R activity inhibition assay (Caliper mobility shift); assay type: biochemical; details: read-out: enzyme activity inhibition (IC50) EGFR T790M/L858R
T1 construct: purchased Invitrogen PR8911A
T1 sequence (P00533 25-1210 T790M/L858R): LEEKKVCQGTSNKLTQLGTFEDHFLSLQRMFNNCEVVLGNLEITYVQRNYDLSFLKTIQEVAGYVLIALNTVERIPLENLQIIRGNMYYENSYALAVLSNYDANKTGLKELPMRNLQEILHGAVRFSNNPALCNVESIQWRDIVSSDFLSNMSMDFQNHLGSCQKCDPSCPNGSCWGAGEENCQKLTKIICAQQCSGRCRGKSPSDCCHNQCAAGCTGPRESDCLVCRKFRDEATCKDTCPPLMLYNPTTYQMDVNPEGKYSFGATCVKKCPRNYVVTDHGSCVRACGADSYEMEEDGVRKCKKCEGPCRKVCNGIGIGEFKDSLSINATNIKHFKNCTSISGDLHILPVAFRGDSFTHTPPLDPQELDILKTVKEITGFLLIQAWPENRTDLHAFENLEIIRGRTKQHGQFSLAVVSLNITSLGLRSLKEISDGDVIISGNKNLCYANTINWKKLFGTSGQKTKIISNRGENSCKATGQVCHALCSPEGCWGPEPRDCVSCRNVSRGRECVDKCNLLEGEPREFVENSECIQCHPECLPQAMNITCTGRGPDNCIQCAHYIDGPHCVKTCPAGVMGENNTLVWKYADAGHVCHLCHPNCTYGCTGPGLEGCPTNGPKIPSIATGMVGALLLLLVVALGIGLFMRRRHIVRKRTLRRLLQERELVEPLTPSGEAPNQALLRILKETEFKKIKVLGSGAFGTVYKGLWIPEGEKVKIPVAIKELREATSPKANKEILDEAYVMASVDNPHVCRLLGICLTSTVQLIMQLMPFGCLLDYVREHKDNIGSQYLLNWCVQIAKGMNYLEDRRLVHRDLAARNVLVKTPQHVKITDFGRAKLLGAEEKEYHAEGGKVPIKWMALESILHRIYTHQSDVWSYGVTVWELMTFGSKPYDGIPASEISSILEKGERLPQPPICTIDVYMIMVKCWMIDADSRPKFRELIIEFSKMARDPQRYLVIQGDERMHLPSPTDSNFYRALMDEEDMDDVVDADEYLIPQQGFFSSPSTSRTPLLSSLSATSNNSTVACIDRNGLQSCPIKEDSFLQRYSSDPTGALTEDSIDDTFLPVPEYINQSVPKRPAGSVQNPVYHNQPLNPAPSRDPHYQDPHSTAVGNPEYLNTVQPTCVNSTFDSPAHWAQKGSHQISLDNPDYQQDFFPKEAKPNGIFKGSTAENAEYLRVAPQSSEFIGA
Method: The assay procedure is as follows. […] 5 μl of the compound dissolved in 10% DMSO at a concentration of 5-fold of the final reaction concentration was added to a 384 well plate. 5 μl of 10% DMSO was used in a no-compound control well, while 5 μl of a kinase buffer was used in a no-enzyme activity control well. […] The conversion rate was read on Caliper EZ Reader II (Caliper Life Sciences). The conversion rate was then converted to inhibitory rate.
As used herein, “max” refers to the conversion rate of the DMSO no-compound control well, and “min” refers to the conversion rate of the no-enzyme activity control well. A curve was obtained by plotting the inhibitory rate as a function of the compound concentration. The XLFit excel add-in version 4.3.1 software was used to fit the curve and calculate the IC50. Inhibitory rate %=(max−conversion rate)/(max−min)×100.

pIC50 (LOVO)	melting point [°C]	pIC50 (H1975)	pIC50 (H358)	pIC50 (EGFR T790M/L858R)	Structure (SMILES)
< 6.00	59 to 61	> 8.00	6.00 to 7.00	> 9.00	C=CC(=O)Nc1cc(Nc2nccc(-n3ccc4cc(OCCOC)ccc43)n2)c(OC)cc1N(C)CCN(C)C [Compound 38, N-(2-((2-(dimethylamino)ethyl)(methyl)amino)-4-methoxy-5-((4-(5-(2-methoxyethoxy)-1H-indol-1-yl)pyrimidin-2-yl)amino)phenyl)acrylamide]
< 6.00	121.3 to 125.1	> 8.00	6.00 to 7.00	> 9.00	C=CC(=O)Nc1cc(Nc2nccc(-n3ccc4cc(C(N)=O)ccc43)n2)c(OC)cc1N(C)CCN(C)C [Compound 41, 1-(2-((5-acrylamido-4-((2-(dimethylamino)ethyl)(methyl)amino)-2-methoxyphenyl)amino)pyrimidin-4-yl)-1H-indole-5-carboxamide]
< 6.00	189.7 to 191.8	7.00 to 7.30	< 6.00	8.00 to 9.00	CC#CC(=O)Nc1cc(Nc2nccc(-n3ccc4ccccc43)n2)c(OC)cc1N(C)CCN(C)C [Compound 73, N-(5-((4-(1H-indol-1-yl)pyrimidin-2-yl)amino)-2-((2-(dimethylamino)ethyl)(methyl)amino)-4-methoxyphenyl)but-2-ynamide]
< 6.00	143.3 to 147.8	> 8.00	< 6.00	8.00 to 9.00	C=CC(=O)Nc1cc(Nc2ncc(OC)c(-n3ccc4ccccc43)n2)c(OC)cc1N(C)CCN(C)C [Compound 6, N-(5-((4-(1H-indol-1-yl)-5-methoxypyrimidin-2-yl)amino)-2-((2-(dimethylamino)ethyl)(methyl)amino)-4-methoxyphenyl)acrylamide]
< 6.00	151 to 153	> 8.00	< 6.00	8.00 to 9.00	C=CC(=O)Nc1cc(Nc2nccc(-n3ccc4ccccc43)n2)c(OC)cc1N(C)CCN1CCCC1 [Compound 80, N-(5-(4-(1H-indol-1-yl)pyrimidin-2-ylamino)-4-methoxy-2-(methyl(2-(pyrrolidin-1-yl)ethyl)amino)phenyl)acrylamide]
< 6.00	154 to 155	> 8.00	6.00 to 7.00	8.00 to 9.00	C=CC(=O)Nc1cc(Nc2ncc(N(C)C)c(-n3ccc4ccccc43)n2)c(OC)cc1N(C)CCN(C)C [Compound 10, N-(5-(5-(dimethylamino)-4-(1H-indol-1-yl)pyrimidin-2-ylamino)-2-((2-(dimethylamino)ethyl)(methyl)amino)-4-methoxyphenyl)acrylamide]
< 6.00	127 to 128	> 8.00	6.00 to 7.00	> 9.00	C=CC(=O)Nc1cc(Nc2nccc(-n3ccc4cc(C#N)ccc43)n2)c(OC)cc1N(C)CCN(C)C [Compound 33, N-(5-((4-(5-cyano-1H-indol-1-yl)pyrimidin-2-yl)amino)-2-((2-(dimethylamino)ethyl)(methyl)amino)-4-methoxyphenyl)acrylamide]
6.00 to 7.00	116.2 to 118.1	7.00 to 7.30	6.00 to 7.00	> 9.00	COc1cc(N(C)CCN(C)C)c(NC(=O)/C=C/CN(C)C)cc1Nc1nccc(-n2ccc3ccccc32)n1 [Compound 69, (E)-N-(5-((4-(1H-indol-1-yl)pyrimidin-2-yl)amino)-2-((2-(dimethylamino)ethyl)(methyl)amino)-4-methoxyphenyl)-4-(dimethylamino)but-2-enamide]
< 6.00	65 to 67	> 8.00	6.00 to 7.00	> 9.00	C=CC(=O)Nc1cc(Nc2nccc(-n3ccc4cc(OCCO)ccc43)n2)c(OC)cc1N(C)CCN(C)C [Compound 37, N-(2-((2-(dimethylamino)ethyl)(methyl)amino)-5-((4-(5-(2-hydroxyethoxy)-1H-indol-1-yl)pyrimidin-2-yl)amino)-4-methoxyphenyl)acrylamide]
< 6.00	161 to 162	7.00 to 7.30	< 6.00	> 9.00	C=CC(=O)Nc1cc(Nc2nccc(-n3ccc4ccccc43)n2)c(OC)cc1N1CC[C@@H](N(C)C)C1 [Compound 79, (R)—N-(5-((4-(1H-indol-1-yl)pyrimidin-2-yl)amino)-2-(3-(dimethylamino)pyrrolidin-1-yl)-4-methoxyphenyl)acrylamide]
< 6.00	164 to 165	> 8.00	6.00 to 7.00	> 9.00	C=CC(=O)Nc1cc(Nc2nccc(-n3ccc4ccc(F)cc43)n2)c(OC)cc1N(C)CCN(C)C [Compound 29, N-(2-((2-(dimethylamino)ethyl)(methyl)amino)-5-((4-(6-fluoro-1H-indol-1-yl)pyrimidin-2-yl)amino)-4-methoxyphenyl)acrylamide]
< 6.00	70 to 71	> 8.00	6.00 to 7.00	> 9.00	C=CC(=O)Nc1cc(Nc2nccc(-n3c(=O)n(C)c4cc(Cl)ccc43)n2)c(OC)cc1N(C)CCN(C)C [Compound 51, N-(5-(4-(5-chloro-3-methyl-2-oxo-2,3-dihydro-1H-benzo[d]imidazol-1-yl)pyrimidin-2-ylamino)-2-((2-(dimethylamino)ethyl)(methyl)amino)-4-methoxyphenyl)acrylamide]
< 6.00	218 to 219	> 8.00	6.00 to 7.00	> 9.00	C=CC(=O)Nc1cc(Nc2nccc(-n3ccc4cc(O)ccc43)n2)c(OC)cc1N(C)CCN(C)C [Compound 36, N-(2-((2-(dimethylamino)ethyl)(methyl)amino)-5-((4-(5-hydroxy-1H-indol-1-yl)pyrimidin-2-yl)amino)-4-methoxyphenyl)acrylamide]
< 6.00	142 to 144	7.30 to 8.00	< 6.00	8.00 to 9.00	C=CC(=O)Nc1cc(Nc2nccc(-n3cc(Cl)c4ccccc43)n2)c(OC)cc1N(C)CCN(C)C [Compound 46, N-(5-((4-(3-chloro-1H-indol-1-yl)pyrimidin-2-yl)amino)-2-((2-(dimethylamino)ethyl)(methyl)amino)-4-methoxyphenyl)acrylamide]
< 6.00	168 to 172	7.30 to 8.00	< 6.00	8.00 to 9.00	C=CC(=O)Nc1cc(Nc2ncc(OC)c(-n3c(=O)n(C)c4ccccc43)n2)c(OC)cc1N(C)CCN(C)C [Compound 57, N-(2-((2-(dimethylamino)ethyl) (methyl)amino)-4-methoxy-5-((5-methoxy-4-(3-methyl-2-oxo-2,3-dihydro-1H-benzo[d]imidazol-1-yl)pyrimidin-2-yl)amino)phenyl)acrylamide]
< 6.00	117 to 118	> 8.00	6.00 to 7.00	> 9.00	C=CC(=O)Nc1cc(Nc2nccc(-n3ccc4cc(OC)ccc43)n2)c(OC)cc1N(C)CCN(C)C [Compound 27, N-(2-((2-(dimethylamino)ethyl)(methyl)amino)-4-methoxy-5-((4-(5-methoxy-1H-indol-1-yl)pyrimidin-2-yl)amino)phenyl)acrylamide]
< 6.00	161 to 162	7.30 to 8.00	< 6.00	8.00 to 9.00	C=CC(=O)Nc1cc(Nc2nccc(-n3ccc4ccccc43)n2)c(OC)cc1N1CC[C@H](N(C)C)C1 [Compound 78, (S)—N-(5-((4-(1H-indol-1-yl)pyrimidin-2-yl)amino)-2-(3-(dimethylamino)pyrrolidin-1-yl)-4-methoxyphenyl)acrylamide]
